In the Kinase Knowledgebase extract (Sharma et al. 2016):

Target: PIK3CA (human) (UniProt P42336)
Test: Inhibition of PIK3CA Kinase Activity

Chain of PIK3CA (human) (P42336 whole entry, looked up): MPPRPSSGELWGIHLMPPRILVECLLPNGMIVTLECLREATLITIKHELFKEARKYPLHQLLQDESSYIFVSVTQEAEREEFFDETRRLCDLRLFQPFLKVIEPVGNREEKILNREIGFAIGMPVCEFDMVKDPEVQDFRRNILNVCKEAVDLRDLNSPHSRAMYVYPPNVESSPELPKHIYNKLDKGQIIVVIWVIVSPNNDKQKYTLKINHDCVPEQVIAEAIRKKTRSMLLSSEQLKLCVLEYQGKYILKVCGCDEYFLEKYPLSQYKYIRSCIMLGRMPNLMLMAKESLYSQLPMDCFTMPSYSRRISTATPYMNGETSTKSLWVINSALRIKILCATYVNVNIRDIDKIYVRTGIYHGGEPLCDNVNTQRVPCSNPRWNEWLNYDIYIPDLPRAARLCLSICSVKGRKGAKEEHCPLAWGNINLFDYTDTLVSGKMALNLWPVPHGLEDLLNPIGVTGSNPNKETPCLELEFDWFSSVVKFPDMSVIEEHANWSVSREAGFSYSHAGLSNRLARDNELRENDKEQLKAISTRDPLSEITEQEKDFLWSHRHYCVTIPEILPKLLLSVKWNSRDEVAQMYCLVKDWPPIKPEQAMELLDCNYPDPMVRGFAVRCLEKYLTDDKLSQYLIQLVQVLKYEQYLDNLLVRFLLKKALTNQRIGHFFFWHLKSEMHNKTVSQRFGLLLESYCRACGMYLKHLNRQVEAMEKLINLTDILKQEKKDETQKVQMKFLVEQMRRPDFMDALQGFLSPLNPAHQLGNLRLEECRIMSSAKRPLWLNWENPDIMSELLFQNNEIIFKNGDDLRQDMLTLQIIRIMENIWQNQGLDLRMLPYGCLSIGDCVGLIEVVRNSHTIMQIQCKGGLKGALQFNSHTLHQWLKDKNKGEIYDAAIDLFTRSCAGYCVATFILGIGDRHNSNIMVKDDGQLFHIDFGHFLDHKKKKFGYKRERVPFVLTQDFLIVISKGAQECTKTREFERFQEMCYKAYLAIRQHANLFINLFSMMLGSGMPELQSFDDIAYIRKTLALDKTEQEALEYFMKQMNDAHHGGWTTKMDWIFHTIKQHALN

Row | IC50 | Compound
1 | 1.34 µM | Cc1nc(N)nc(-n2c(Nc3ccc(NS(=O)(=O)c4ccc(F)cc4)cc3)nc3ccccc32)n1
2 | 2.74 µM | Cc1nc(N)nc(-n2c(Nc3n[nH]c4cccc(F)c34)nc3ccccc32)n1
3 | 0.0581 µM | CNc1nc(C)nc(-n2c(Nc3cc[nH]n3)nc3ccc(-c4cncnc4)cc32)n1
4 | 0.47 µM | CCNC(=S)Nc1ccc(Nc2nc3ccccc3n2-c2nc(C)nc(N)n2)cc1
5 | 31.8 µM | Cc1nc(NCCN2CCNCC2)nc(-n2c(Nc3cc[nH]n3)nc3ccccc32)n1
6 | 1.37 µM | Cc1nc(N)nc(-n2c(Nc3ccc(NC(=O)C4CCCC4)cc3)nc3ccccc32)n1
7 | 2.55 µM | Cc1nc(N)nc(-n2c(Nc3ccc(NC(=O)c4ccc(OC(F)(F)F)cc4)cc3)nc3ccccc32)n1
8 | 17.2 µM | Cc1nc(NC2CCOCC2)nc(-n2c(Nc3cc[nH]n3)nc3ccccc32)n1
9 | 3.83 µM | Cc1nc(N)nc(-n2c(NC3CCOC3)nc3ccccc32)n1 (stereo unspecified)
10 | 4.85 µM | Cc1nc(NC2CC2)nc(-n2c(Nc3ccn[nH]3)nc3ccccc32)n1
11 | 0.0146 µM | Cc1nc(N)nc(-n2c(Nc3cccc4[nH]ncc34)nc3ccccc32)n1
12 | 4.55 µM | COCCNc1nc(C)nc(-n2c(Nc3cc[nH]n3)nc3ccccc32)n1
13 | 7.26 µM | Cc1nc(NCCO)nc(-n2c(Nc3cc[nH]n3)nc3ccccc32)n1
14 | 0.0531 µM | CNc1nc(C)nc(-n2c(Nc3ccc(NC(C)=O)cc3)nc3ccccc32)n1

Row | Compound | IC50
15 | COc1ccc(-c2ccc3c(c2)nc(Nc2ccn[nH]2)n3-c2nc(C)nc(N)n2)cc1CO.COc1ccc(-c2ccc3nc(Nc4ccn[nH]4)n(-c4nc(C)nc(N)n4)c3c2)cc1CO | 0.0943 µM
16 | CNc1nc(C)nc(-n2c(Nc3cc[nH]n3)nc3cc(C4=CCNCC4)ccc32)n1.CNc1nc(C)nc(-n2c(Nc3cc[nH]n3)nc3ccc(C4=CCNCC4)cc32)n1 | 4.24 µM
